Laboratory results as given in US12077503B2, “Substituted cyclic amides and their use as herbicides” (FMC CORPORATION, priority 2015, dated 2024).

Tests used:
Assay type in all cases: in vivo
[1] = tested on: Kochia (Kochia scoparia); test: Test A preemergence
Procedure, shortened: (§1)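 Visual injury, scored on a 0–100 scale relative to untreated controls, was recorded about 10 d after application. Treatments were a preemergence soil spray over planted seeds or a postemergence spray on plants at the one- to two-leaf stage, 2 to 10 cm tall, all in loam soil–sand blend in the greenhouse.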

[2] = tested on: barnyardgrass (Echinochloa crus-galli); test: Test A preemergence
Procedure, shortened: as §1

[3] = tested on: giant foxtail (Setaria faberii); test: Test A preemergence
Procedure, shortened: as §1

[4] = tested on: pigweed (Amaranthus retroflexus); test: Test A preemergence
[5] = tested on: ragweed (common ragweed, Ambrosia elatior); test: Test A preemergence
Procedure, shortened: as §1

[6] = tested on: ryegrass, Italian (Italian ryegrass, Lolium multiflorum); test: Test A preemergence
Procedure, shortened: as §1

[7] = tested on: Galium (catchweed bedstraw, Galium aparine); test: Test A postemergence
Procedure, shortened: as §1

[8] = tested on: Kochia (Kochia scoparia); test: Test A postemergence
Procedure, shortened: as §1

[9] = tested on: barnyardgrass (Echinochloa crus-galli); test: Test A postemergence
Procedure, shortened: as §1

[10] = tested on: blackgrass (Alopecurus myosuroides); test: Test A postemergence
Procedure, shortened: as §1

[11] = tested on: corn (Zea mays); test: Test A postemergence
Procedure, shortened: as §1

[12] = tested on: giant foxtail (Setaria faberii); test: Test A postemergence
Procedure, shortened: as §1

[13] = tested on: pigweed (Amaranthus retroflexus); test: Test A postemergence
Procedure, shortened: as §1

[14] = tested on: ragweed (common ragweed, Ambrosia elatior); test: Test A postemergence
Procedure, shortened: as §1

[15] = tested on: ryegrass, Italian (Italian ryegrass, Lolium multiflorum); test: Test A postemergence
Procedure, shortened: as §1

[16] = tested on: wheat (Triticum aestivum); test: Test A postemergence
Procedure, shortened: as §1

[17] = tested on: barnyardgrass (Echinochloa crus-galli); test: Test B flooded paddy test; conditions: Flood, 250 g ai/ha; 0 to 100 scale where 0 is no effect and 100 is complete control; 13 to 15 d
Procedure, shortened: (§2)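 Response scored visually against untreated controls, 0 = no effect and 100 = complete control, 13–15 d after treatment in the greenhouse. Compounds added to paddy water held 3 cm above soil surface. Treatment given at 2-leaf stage.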

[18] = tested on: ducksalad (Heteranthera limosa); test: Test B flooded paddy test; conditions: Flood, 250 g ai/ha; 0 to 100 scale where 0 is no effect and 100 is complete control; 13 to 15 d
Procedure, shortened: as §2

[19] = tested on: rice (Oryra sativa); test: Test B flooded paddy test; conditions: Flood, 250 g ai/ha; 0 to 100 scale where 0 is no effect and 100 is complete control; 13 to 15 d
Procedure, shortened: as §2

[20] = tested on: sedge, umbrella (small-flower umbrella sedge, Cyperus difformis); test: Test B flooded paddy test; conditions: Flood, 250 g ai/ha; 0 to 100 scale where 0 is no effect and 100 is complete control; 13 to 15 d
Procedure, shortened: as §2

[21] = 125 g ai/ha, Preemergence, visual injury after approximately 10 d, 0 to 100 scale where 0 is no effect and 100 is complete control
[22] = 500 g ai/ha, preemergence, 0 to 100 scale, 0 = no effect, 100 = complete control
[23] = 125 g ai/ha, postemergence, visual rating after approx. 10 d, 0 to 100 scale (0 no effect, 100 complete control)
[24] = 500 g ai/ha, postemergence, visual injury, 0 to 100 scale (0 no effect, 100 complete control), approx. 10 d
[25] = Preemergence, 500 g ai/ha, visual injury approx. 10 d
[26] = 125 g ai/ha, postemergence, visual injury rating on 0 to 100 scale (0 no effect, 100 complete control), approx. 10 d
[27] = Postemergence, 500 g ai/ha, 0 to 100 scale where 0 is no effect and 100 is complete control

Cc1ccc(C2CNC(=O)C2C(=O)Nc2ccccc2F)cc1C(F)(F)F (racemic) [Compound 678]
0: Plant response rating, Kochia [1, 21] | Plant response rating, Pigweed [4, 21] | Plant response rating, Pigweed [4, 22] | Plant response rating, Ragweed [5, 21] | Plant response rating, Ragweed [5, 22] | Plant response rating, Ryegrass, Italian [6, 21] | Plant response rating, Galium [7, 23] | Plant response rating, Kochia [8, 23] | Plant response rating, Kochia [8, 24] | Plant response rating, Pigweed [13, 23] | Plant response rating, Pigweed [13, 24] | Plant response rating, Ragweed [14, 23] | Plant response rating, Ragweed [14, 24] | Plant response rating, Ryegrass, Italian [15, 23] | Plant response rating, Wheat [16, 23] | Plant response rating, Sedge, Umbrella [20]
20: Plant response rating, Ryegrass, Italian [6, 22] | Plant response rating, Foxtail, Giant [12, 23] | Plant response rating, Ryegrass, Italian [15, 24] | Plant response rating, Wheat [16, 24]
75: Plant response rating, Ducksalad [18]
40: Plant response rating, Barnyardgrass [17]
10: Plant response rating, Corn [11, 23] | Plant response rating, Rice [19]
90: Plant response rating, Barnyardgrass [2, 21] | Plant response rating, Barnyardgrass [2, 22] | Plant response rating, Foxtail, Giant [3, 22]
80: Plant response rating, Foxtail, Giant [3, 21] | Plant response rating, Barnyardgrass [9, 24]
60: Plant response rating, Blackgrass [10, 24] | Plant response rating, Foxtail, Giant [12, 24]
70: Plant response rating, Barnyardgrass [9, 23]
30: Plant response rating, Kochia [1, 22] | Plant response rating, Galium [7, 24] | Plant response rating, Blackgrass [10, 23] | Plant response rating, Corn [11, 24]

Cc1ccc(C2CNC(=O)C2C(=O)Nc2ccccc2S(C)(=O)=O)c(F)c1 (racemic) [Compound 507]
30: Kochia plant response rating [8, 26]
80: Barnyardgrass plant response rating (0 to 100 scale, 0 is no effect, 100 is complete control) [2, 25]
20: Pigweed plant response rating (0 to 100 scale, 0 is no effect, 100 is complete control) [4, 25] | Plant response rating, Galium [7, 27] | Barnyardgrass plant response rating [9, 26] | Plant response rating, Foxtail, Giant [12, 27] | Plant response rating, Ragweed [14, 27]
50: Foxtail, Giant plant response rating (0 to 100 scale, 0 is no effect, 100 is complete control) [3, 25]
60: Plant response rating, Barnyardgrass [9, 27]
70: Kochia plant response rating (0 to 100 scale, 0 is no effect, 100 is complete control) [1, 25] | Plant response rating, Kochia [8, 27]
0: Plant response rating, Kochia [1, 21] | Plant response rating, Foxtail, Giant [3, 21] | Plant response rating, Pigweed [4, 21] | Plant response rating, Ragweed [5, 21] | Ragweed plant response rating (0 to 100 scale, 0 is no effect, 100 is complete control) [5, 25] | Plant response rating, Ryegrass, Italian [6, 21] | Ryegrass, Italian plant response rating (0 to 100 scale, 0 is no effect, 100 is complete control) [6, 25] | Galium plant response rating [7, 26] | Blackgrass plant response rating [10, 26] | Plant response rating, Blackgrass [10, 27] | Corn plant response rating [11, 26] | Plant response rating, Corn [11, 27] | Foxtail, Giant plant response rating [12, 26] | Pigweed plant response rating [13, 26] | Plant response rating, Pigweed [13, 27] | Ragweed plant response rating [14, 26] | Ryegrass, Italian plant response rating [15, 26] | Plant response rating, Ryegrass, Italian [15, 27] | Wheat plant response rating [16, 26] | Plant response rating, Wheat [16, 27] | Plant response rating, Barnyardgrass [17] | Plant response rating, Rice [19] | Plant response rating, Sedge, Umbrella [20]
75: Plant response rating, Ducksalad [18]
40: Plant response rating, Barnyardgrass [2, 21]
